{"source": "patent US12650423B2", "about": "“Pharmaceutical compositions and use thereof” (HADASIT MEDICAL RESEARCH SERVICES & DEVELOPMENT LTD., priority 2020, dated 2026)", "system": "mouse DTH model", "test": "Mouse delayed-type hypersensitivity (DTH) model, oxazalone ear swelling", "assay_type": "in vivo", "conditions": "BALB/c mice, oxazalone challenge of right ear, 24 hr after challenge; histology FIGS. 15C-15D", "method": "Mouse DTH in-vivo assay is an inflammatory model which is known as type IV hypersensitivity reactions and is mediated by soluble antigens primarily involving CD4+ or CD8+ T cell activation. This assay is characterized by the release of mediators from activated T cells. The T cells then activate local endothelial cells and recruit macrophages, which results in local inflammation and swelling. In this assay, female BALB/c mice were sensitized on the shaved abdominal skin with 100 μl of 2% oxazalone dissolved in acetone/olive oil [4:1 (vol/vol)] applied topically (day 0). DTH sensitivity was elicited 6 days later by challenging the mice with 20 μl of 0.5% oxazalone in acetone/olive oil, 10 μl administered topically to each side of the right ear. Control group was subcutaneously injected with Dexamethasone 100 μg/mouse in a total volume of 200 μl. 24 hr after challenge the swelling of the right ear was measured using a Micrometer, digital caliper (Mitutoyo Corp, Tokyo, Japan). The swelling of the left ear was served as control and the readout of this experiment model was the delta between the right and left ear (FIG. 15E).", "data": [{"smiles": "OC1(c2ccc(Cl)c(C(F)(F)F)c2)CCN(CCCC(c2ccc(F)cc2)c2ccc(F)cc2)CC1", "note": "[Penfluridol]", "values": [{"measurement": "effect in mouse DTH model", "result": "pro-inflammatory effect"}]}]}
